Data from patent US6245968A, “Mutated hydroxyphenylpyruvate dioxygenase, DNA sequence and isolation of plants which contain such a gene and which are tolerant to herbicides” (Aventis CropScience S.A., priority 1997, dated 2001).

How the values were obtained:
[1] = target: T1, Synechocystis PCC6803 HPPD variant SyN318 (Glycine318 replaced with asparagine) (Synechocystis sp., UniProt Q55810, G318N); assay: HPPD activity by HPLC determination of homogentisate (Km, IC50); format: biochemical
T1 construct: made in house; host or cells: E. coli, vector ptrc-99 A; crude extract (JM105 is named for the unmutated plasmid)
Experimental: (§1) Glycine318, replaced with asparagine, designated SyN318, similar to PfD334 (in Example 3).
(§2) The mutants SyN318 and SyA318 which were obtained in the previous example were examined, in comparison with the unmutated HPPD of Synechocystis, for the biochemical characteristics Km and IC50 with regard to an HPPD inhibitor, i.e. 2-cyano-3-cyclopropyl-1-(2-methylsulphonyl-4-trifluoromethylphenyl)propane-1,3-dione. This analysis was carried out using the following protocol:
(§3) The HPPD activity is measured by determining, by means of high performance liquid chromatography (HPLC), the quantity of product, i.e. homogentisate,which is formed after incubating the enzyme with its substrate HPP. Injecting different amounts of homogentisate, varying from 12 to 48 nmoles, into the column enables the retention time of the homogentisate to be determined and the peak area to be correlated with the quantity of product injected.
(§4) The activity measurements are carried out in a final volume of […] containing: 12.6 mM ascorbate, […] iron (FeH8N2O8S2,6H2O) (previously prepared in 0.1 M tris-acetate buffer, pH6), […] of crude extract containing the HPPD, […] HPP and 0.1 M tris-acetate buffer, pH7.5. The enzyme is firstly incubated with the iron at 30° C. for 1 min and then with the ascorbate at 30° C. for 5 min before the reaction is started by adding the substrate, i.e. the HPP. The incubation is continued at 30° C. for 1 min 30sec and the reaction is then stopped by adding […] of 20% perchloric acid. The proteins are then removed by centrifuging for 5min at 15,300 rpm and at 20° C. The supernatant is recovered. The quantity of homogentisate formed is then analysed by injecting […] of assay mixture into a Pico TagC18 column which is connected to the HPLC system. […] On leaving the column, the homogentisate is detected by measuring absorbance at 288 nm. The quantity of product formed is defined by the area of the peak on the chromatogram.
(§5) The Km of the HPPD for HPP is determined by measuring the initial velocity of the reaction using different concentrations of HPP. […]

[2] = system: Synechocystis PCC6803 HPPD variant SyN318 (Glycine318 replaced with asparagine); assay: as above; format: biochemical; conditions: SyN318 versus unmutated Synechocystis HPPD; 10 min
Experimental: as §1, §2, §3, §4, §5

[3] = target: T2, Synechocystis PCC6803 HPPD variant SyA318 (Glycine318 replaced with alanine) (Synechocystis sp., UniProt Q55810, G318A); assay: as above; format: biochemical
T2 construct: made in house; host or cells: E. coli, vector ptrc-99 A; crude extract (JM105 is named for the unmutated plasmid)
Experimental: (§6) Glycine318, replaced with alanine, designated SyA318, similar to PfA334 (in Example 3).
as §2, §3, §4, §5

[4] = system: Synechocystis PCC6803 HPPD variant SyA318 (Glycine318 replaced with alanine); assay: as above; format: biochemical; conditions: SyA318 versus unmutated Synechocystis HPPD; 10 min
Experimental: as §6, §2, §3, §4, §5

[5] = system: Pseudomonas fluorescens A32 HPPD, wild type (unmutated, vector pRPC); assay: Colorimetric screening test (browning of medium) in E. coli; format: cell-based; conditions: 7 mM inhibitor
From the text: The vector pRPA (described in application WO96/38567), which contains a genomic DNA fragment and the coding region of the gene for HPPD from Pseudomonas fluorescens A32, was digested with NcoI, purified and then ligated into the expression vector pKK233-2 (Clontech), which itself was digested with NcoI, the site for which forms a unique cloning site in this vector. The orientation of the gene in the resulting pRPC vector which permitted expression under the control of the trc promoter was verified.
A culture medium of the YT broth type, containing 1% agarose (Gibco BRL ultra pure), 5 mM L-tyrosine (Sigma) and the agent for selecting the above mentioned pRPC vector, is dispensed into a 96-well plate at the rate of […] per well. 10 microliter of a culture of E.coli in the exponential phase of growth and harbouring the pRPC vector are dispensed into each well. After 16 hours at 37° C., the wells which only contain the culture medium, or those which have been seeded with an E. coli culture harbouring the vector pKK233-2, are translucent whereas the wells which have been seeded with an E. coli culture harbouring the vector pRPC are coloured brown. […]

[6] = system: Pseudomonas fluorescens A32 HPPD variant PfD334 (Glycine334 replaced by aspartic acid); assay: as above; format: cell-based; conditions: 7 mM inhibitor, score 0 to 10
Experimental: (§7) A culture medium of the YT broth type, containing 1% agarose (Gibco BRL ultra pure), 5 mM L-tyrosine (Sigma) and the agent for selecting the above mentioned pRPC vector, is dispensed into a 96-well plate at the rate of […] per well. 10 microliter of a culture of E.coli in the exponential phase of growth and harbouring the pRPC vector are dispensed into each well. After 16 hours at 37° C., the wells which only contain the culture medium, or those which have been seeded with an E. coli culture harbouring the vector pKK233-2, are translucent whereas the wells which have been seeded with an E. coli culture harbouring the vector pRPC are coloured brown.
(§8) A series of samples was made up with identical culture medium which contained varying concentrations (0 mM to 14 mM) of 2-cyano-3-cyclopropyl-1-(2-methylsulphonyl-4-trifluoromethylphenyl)propane-1,3-dione (EP 0496631), which was dissolved in water and brought to pH7.5. This molecule is a diketonitrile which is recognized as being an effective inhibitor of HPPD activity (Pallett, K. E. et al., 1997. Pestic. Sci. 50, 83-84).

[7] = system: Pseudomonas fluorescens A32 HPPD variant PfE298 (Gly298 replaced by glutamic acid); assay: as above; format: cell-based; conditions: 7 mM inhibitor
Experimental: as §7, §8

[8] = system: Pseudomonas fluorescens A32 HPPD variant PfL215 (proline 215 replaced by leucine); assay: as above; format: cell-based; conditions: 7 mM inhibitor, score 0 to 10
Experimental: as §7, §8

[9] = system: Pseudomonas fluorescens A32 HPPD variant PfL333 (Phenylalanine333 replaced by leucine); assay: as above; format: cell-based; conditions: 7 mM inhibitor, score 0 to 10
Experimental: as §7, §8

[10] = system: Pseudomonas fluorescens A32 HPPD variant PfP334 (Glycine334 replaced by proline); assay: as above; format: cell-based; conditions: 7 mM inhibitor, score 0 to 10
Experimental: as §7, §8

[11] = system: Pseudomonas fluorescens A32 HPPD variant PfS334 (Glycine334 replaced by serine); assay: as above; format: cell-based; conditions: 7 mM inhibitor, score 0 to 10
Experimental: as §7, §8

[12] = system: Pseudomonas fluorescens A32 HPPD variant PfW334 (Glycine334 replaced by tryptophan); assay: as above; format: cell-based; conditions: 7 mM inhibitor, score 0 to 10
Experimental: as §7, §8

[13] = target: T3, Synechocystis PCC6803 HPPD, unmutated (Synechocystis sp., UniProt Q55810); assay: as above; format: cell-based; conditions: 7 mM inhibitor, 1 mM IPTG
T3 construct: expressed in transfected cells; host or cells: E. coli JM105, vector ptrc-99 A, IPTG-induced
T3 sequence (Q55810 1-339): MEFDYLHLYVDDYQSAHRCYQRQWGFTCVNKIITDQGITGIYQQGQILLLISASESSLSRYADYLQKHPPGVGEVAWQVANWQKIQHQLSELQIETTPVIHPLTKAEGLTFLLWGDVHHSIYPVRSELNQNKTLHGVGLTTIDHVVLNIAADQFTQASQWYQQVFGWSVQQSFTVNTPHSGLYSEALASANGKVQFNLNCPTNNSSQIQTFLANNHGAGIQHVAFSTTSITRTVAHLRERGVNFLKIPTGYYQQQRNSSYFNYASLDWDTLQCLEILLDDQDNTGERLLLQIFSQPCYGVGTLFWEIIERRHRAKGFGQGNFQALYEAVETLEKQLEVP
Experimental: as §7
The dioxygenase activity of the Synechocystis HPPD which had thus been obtained was observed by the browning of the medium, using the previously described colorimetric test, with addition of IPTG (isopropyl-b-D-thiogalactopyranoside) at a concentration of 1 mM in order to induce expression of the protein.

[14] = target: T1, Synechocystis PCC6803 HPPD variant SyN318 (Glycine318 replaced with asparagine); assay: as above; format: cell-based; conditions: 7 mM inhibitor
Experimental: as §7
(§9) With several mutants at position 334 in Pseudomonas fluorescens having been obtained, two site-directed mutagenesis experiments (U.S.E., Pharmacia) were carried out using the oligonucleotides MUGLYA and MUGLYB, which oligonucleotides were intended to replace the glycine at position 318 (of Synechocystis corresponding to the glycine at position 334 of P.fluorescens) either with an asparagine or a serine or with a proline or an alanine (SEQ ID NO 18 and 19).
(§10) One mutant from each experiment was sequenced.
as §1

[15] = target: T2, Synechocystis PCC6803 HPPD variant SyA318 (Glycine318 replaced with alanine); assay: as above; format: cell-based; conditions: 7 mM inhibitor
Experimental: as §7, §9, §10, §6

[16] = target: Synechocystis PCC6803 HPPD, native (unmutated) (Synechocystis sp., UniProt Q55810); assay: HPPD activity by HPLC determination of homogentisate (Km, IC50)
O=C(O)C(=O)Cc1ccc(O)cc1 [17] = assay: as above; format: biochemical; conditions: other: Km of the HPPD for HPP, crude extract, 30° C., pH7.5, pH 7.5
Experimental: as §6, §2, §3, §4, §5

O=C(O)C(=O)Cc1ccc(O)cc1 [18] = assay: as above; format: biochemical; conditions: other: Km of the HPPD for HPP, crude extract, 30° C., pH7.5, pH 7.5; remark: listed apart in the source
Experimental: as §1, §2, §3, §4, §5

O=C(O)C(=O)Cc1ccc(O)cc1 [19] = assay: cells, lysate or membranes named; conditions: other: Km of the HPPD for HPP, crude extract, 30° C., pH7.5, pH 7.5

Compound: CS(=O)(=O)c1cc(C(F)(F)F)ccc1C(=O)C(C#N)C(=O)C1CC1 (stereo not drawn) [2-cyano-3-cyclopropyl-1-(2-methylsulphonyl-4-trifluoromethylphenyl)propane-1,3-dione]
- IC50 [1]: 80 µM
- ratio of the IC50 of a mutant HPPD to the IC50 of the non-mutant HPPD [2]: 1000
- IC50 [3]: 40 µM
- ratio of the IC50 of a mutant HPPD to the IC50 of the non-mutant HPPD [4]: 500
- colour of the bacterial culture in the colorimetric test ([5]; dissolved in water, pH7.5): totally without colour
- Activity in the screening test using a selective agent dose of 7 mM ([5]; score 0 to 10): 0
- Activity in the screening test using a selective agent dose of 7 mM [6]: 1
- colour of the screening medium [7]: turn brown
- Activity in the screening test using a selective agent dose of 7 mM ([7]; score 0 to 10): 3
- Activity in the screening test using a selective agent dose of 7 mM [8]: 7
- Activity in the screening test using a selective agent dose of 7 mM [9]: 4
- Activity in the screening test using a selective agent dose of 7 mM [10]: 5
- Activity in the screening test using a selective agent dose of 7 mM [11]: 7
- Activity in the screening test using a selective agent dose of 7 mM [12]: 6
- browning of the medium in the colorimetric test [13]: no browning of the medium
- browning of the screening medium [14]: caused browning of the screening medium
- browning of the screening medium [15]: caused browning of the screening medium
- IC50 [16]: 0.08 µM

Compound: Synechocystis PCC6803 HPPD variant SyA318 (Glycine318 replaced with alanine) (Synechocystis sp. PCC 6803 substr. Kazusa; G318A)
- Km (O=C(O)C(=O)Cc1ccc(O)cc1 [17]): 320 µM

Compound: Synechocystis PCC6803 HPPD variant SyN318 (Glycine318 replaced with asparagine) (Synechocystis sp. PCC 6803 substr. Kazusa; G318N)
- Km (O=C(O)C(=O)Cc1ccc(O)cc1 [18]): 470 µM

Compound: Synechocystis PCC6803 HPPD, native (unmutated) (Synechocystis sp. PCC 6803 substr. Kazusa)
- Km (O=C(O)C(=O)Cc1ccc(O)cc1 [19]): 60 µM
